Assay: xn = mol fraction of the nth substance listed
Settings: 100 kPa

For `C[n+]1ccn(CCCC#N)c1.O=S(=O)([O-])C(F)(F)F` + O=C1CCCO1, the electrical conductivity (288.15 K, x1 = 0.1003) was 0.725 S/m, the electrical conductivity (288.15 K, x1 = 0.2001) was 0.798 S/m and the electrical conductivity (288.15 K, x1 = 0.3999) was 0.353 S/m. The electrical conductivity (288.15 K, x1 = 0.4999) was 0.261 S/m, the electrical conductivity (288.15 K, x1 = 0.7001) was 0.118 S/m and the electrical conductivity (288.15 K, x1 = 0.8002) was 0.084 S/m. For the same molecule, the electrical conductivity (288.15 K, x1 = 0.9004) was 0.05 S/m, the electrical conductivity (293.15 K, x1 = 0.1003) was 0.834 S/m and the electrical conductivity (293.15 K, x1 = 0.2001) was 0.906 S/m. The electrical conductivity (293.15 K, x1 = 0.3003) was 0.623 S/m, the electrical conductivity (293.15 K, x1 = 0.3999) was 0.434 S/m and the electrical conductivity (293.15 K, x1 = 0.4999) was 0.318 S/m. It also gave an electrical conductivity (293.15 K, x1 = 0.6002) of 0.232 S/m, an electrical conductivity (293.15 K, x1 = 0.7001) of 0.156 S/m and an electrical conductivity (293.15 K, x1 = 0.8002) of 0.11 S/m. For the same molecule, the electrical conductivity (293.15 K, x1 = 1) was 0.034 S/m, the electrical conductivity (298.15 K, x1 = 0.1003) was 0.95 S/m and the electrical conductivity (298.15 K, x1 = 0.2001) was 1.02 S/m. It also gave an electrical conductivity (298.15 K, x1 = 0.3003) of 0.726 S/m, an electrical conductivity (298.15 K, x1 = 0.3999) of 0.521 S/m and an electrical conductivity (298.15 K, x1 = 0.4999) of 0.385 S/m. It also gave an electrical conductivity (298.15 K, x1 = 0.6002) of 0.283 S/m, an electrical conductivity (298.15 K, x1 = 0.7001) of 0.201 S/m and an electrical conductivity (298.15 K, x1 = 0.8002) of 0.142 S/m. For the same molecule, the electrical conductivity (298.15 K, x1 = 1) was 0.048 S/m, the electrical conductivity (303.15 K, x1 = 0.1003) was 1.07 S/m and the electrical conductivity (303.15 K, x1 = 0.2001) was 1.14 S/m. The electrical conductivity (303.15 K, x1 = 0.3003) was 0.835 S/m, the electrical conductivity (303.15 K, x1 = 0.3999) was 0.617 S/m and the electrical conductivity (303.15 K, x1 = 0.6002) was 0.341 S/m. For the same molecule, the electrical conductivity (303.15 K, x1 = 0.7001) was 0.252 S/m, the electrical conductivity (303.15 K, x1 = 1) was 0.064 S/m and the electrical conductivity (308.15 K, x1 = 0.1003) was 1.2 S/m. It also gave an electrical conductivity (308.15 K, x1 = 0.2001) of 1.26 S/m, an electrical conductivity (308.15 K, x1 = 0.3003) of 0.951 S/m and an electrical conductivity (308.15 K, x1 = 0.3999) of 0.718 S/m. The electrical conductivity (308.15 K, x1 = 0.4999) was 0.539 S/m, the electrical conductivity (308.15 K, x1 = 0.7001) was 0.309 S/m and the electrical conductivity (308.15 K, x1 = 0.8002) was 0.221 S/m. It also gave an electrical conductivity (308.15 K, x1 = 0.9004) of 0.153 S/m, an electrical conductivity (313.15 K, x1 = 0.1003) of 1.33 S/m and an electrical conductivity (313.15 K, x1 = 0.2001) of 1.4 S/m. It also gave an electrical conductivity (313.15 K, x1 = 0.3999) of 0.83 S/m, an electrical conductivity (313.15 K, x1 = 0.4999) of 0.625 S/m and an electrical conductivity (313.15 K, x1 = 0.8002) of 0.269 S/m. The electrical conductivity (313.15 K, x1 = 0.9004) was 0.19 S/m, the electrical conductivity (313.15 K, x1 = 1) was 0.106 S/m and the electrical conductivity (318.15 K, x1 = 0.1003) was 1.48 S/m. The electrical conductivity (318.15 K, x1 = 0.2001) was 1.53 S/m, the electrical conductivity (318.15 K, x1 = 0.3003) was 1.21 S/m and the electrical conductivity (318.15 K, x1 = 0.3999) was 0.947 S/m. It also gave an electrical conductivity (318.15 K, x1 = 0.4999) of 0.721 S/m, an electrical conductivity (318.15 K, x1 = 0.6002) of 0.554 S/m and an electrical conductivity (318.15 K, x1 = 0.7001) of 0.441 S/m. For the same molecule, the electrical conductivity (323.15 K, x1 = 0.1003) was 1.61 S/m, the electrical conductivity (323.15 K, x1 = 0.2001) was 1.68 S/m and the electrical conductivity (323.15 K, x1 = 0.3999) was 1.07 S/m. For the same molecule, the electrical conductivity (323.15 K, x1 = 0.4999) was 0.821 S/m, the electrical conductivity (323.15 K, x1 = 0.6002) was 0.642 S/m and the electrical conductivity (323.15 K, x1 = 0.7001) was 0.513 S/m. For the same molecule, the electrical conductivity (328.15 K, x1 = 0.1003) was 1.76 S/m, the electrical conductivity (328.15 K, x1 = 0.2001) was 1.83 S/m and the electrical conductivity (328.15 K, x1 = 0.3003) was 1.49 S/m. For the same molecule, the electrical conductivity (328.15 K, x1 = 0.3999) was 1.2 S/m, the electrical conductivity (328.15 K, x1 = 0.4999) was 0.927 S/m and the electrical conductivity (328.15 K, x1 = 0.6002) was 0.733 S/m. The electrical conductivity (328.15 K, x1 = 0.7001) was 0.592 S/m, the electrical conductivity (328.15 K, x1 = 0.8002) was 0.449 S/m and the electrical conductivity (328.15 K, x1 = 0.9004) was 0.333 S/m. For the same molecule, the electrical conductivity (328.15 K, x1 = 1) was 0.205 S/m, the electrical conductivity (333.15 K, x1 = 0.1003) was 1.91 S/m and the electrical conductivity (333.15 K, x1 = 0.2001) was 1.98 S/m. It also gave an electrical conductivity (333.15 K, x1 = 0.3003) of 1.64 S/m, an electrical conductivity (333.15 K, x1 = 0.4999) of 1.04 S/m and an electrical conductivity (333.15 K, x1 = 0.6002) of 0.832 S/m. For the same molecule, the electrical conductivity (333.15 K, x1 = 0.7001) was 0.675 S/m, the electrical conductivity (333.15 K, x1 = 0.8002) was 0.52 S/m and the electrical conductivity (333.15 K, x1 = 0.9004) was 0.392 S/m. The electrical conductivity (333.15 K, x1 = 1) was 0.25 S/m, the electrical conductivity (338.15 K, x1 = 0.1003) was 2.07 S/m and the electrical conductivity (338.15 K, x1 = 0.2001) was 2.14 S/m. The electrical conductivity (338.15 K, x1 = 0.3999) was 1.46 S/m, the electrical conductivity (338.15 K, x1 = 0.4999) was 1.17 S/m and the electrical conductivity (338.15 K, x1 = 0.6002) was 0.945 S/m. It also gave an electrical conductivity (338.15 K, x1 = 0.7001) of 0.761 S/m, an electrical conductivity (338.15 K, x1 = 0.8002) of 0.596 S/m and an electrical conductivity (338.15 K, x1 = 0.9004) of 0.454 S/m. It also gave an electrical conductivity (343.15 K, x1 = 0.1003) of 2.22 S/m, an electrical conductivity (343.15 K, x1 = 0.2001) of 2.3 S/m and an electrical conductivity (343.15 K, x1 = 0.3003) of 1.95 S/m. For the same molecule, the electrical conductivity (343.15 K, x1 = 0.3999) was 1.6 S/m, the electrical conductivity (343.15 K, x1 = 0.4999) was 1.29 S/m and the electrical conductivity (343.15 K, x1 = 0.6002) was 1.05 S/m. It also gave an electrical conductivity (343.15 K, x1 = 0.8002) of 0.677 S/m, an electrical conductivity (343.15 K, x1 = 0.9004) of 0.519 S/m and an electrical conductivity (343.15 K, x1 = 1) of 0.355 S/m.

Reference: a compilation of properties of binary mixtures (doi:10.1016/j.molliq.2022.120052)
